From US8414989B2, “Cyclodextrin compositions, articles, and methods” (Cellresin Technologies, LLC, priority 2011, dated 2013)

Key:
[1] = Example 2: 1-butene headspace release from UV-cured coating on polyethylene extrusion coated paper; type: physicochemical; details: cured 1-butene/c/α-CD coated 5 cm x 10 cm rectangle, 250 mL bottle; for Headspace concentration of 1-butene, Ave.: 50 μL water, average of six
Method: A 20 mL bottle was charged with 9.8 g of UV Coating VP 10169/60 MF-2NE (obtained from Verga GmbH of Aschau am Inn, Germany) and 0.2 g of 1-butene/c/α-CD. The bottle was firmly capped and the components were mixed by shaking the bottle by hand until uniformly dispersed.
About 3 mL of the mixture was removed with a dropper dispensed on a glass pan. A rubber ink roller was used to spread the mixture on the glass and roller. Next, the roller was used to coat the mixture on the coated side of a 20 cm by 20 cm section of polyethylene extrusion coated paper (REYNOLDS® Freezer Paper, 90 microns total thickness). The roller delivered a coating nominal thickness of 0.3 microns. A razor blade was used to cut a 5 cm by 10 cm rectangle from the coated sheet. Then the coated cut rectangle was passed by hand about 10 cm beneath a medium pressure mercury arc lamp operating at 200 watts per inch (79 watts per cm). After 1.5 seconds exposure to the lamp, the cured rectangle was removed. The cured rectangle was allowed to sit on a laboratory bench overnight coating side down.
Six replicate coated rectangles were made in this fashion. Each rectangle was placed in a 250 mL serum bottle. Then the six bottles were sealed with TEFLON® faced silicone septa. The 1-butene headspace concentration was quantified using gas chromatography by removing 250 μL of gas from the sample bottle using a six port, two-position gas sampling valve interfaced directly to the GC column having FID detector.
Then 50 μL of deionized water was injected into each bottle. […] The headspace of each of the six sealed bottles was analyzed at 0.5, 1, 2, 4, 8, 24, and 96 hours after the injection of water wherein about 3 mL of the 250 mL bottle headspace volume was removed for each analysis. In each sampling, the amount of 1-butene released from the UV coated rectangles was quantified by gas chromatography against a 6-point 1-butene calibration curve having a 0.998 correlation coefficient. Table 1 and FIG. 1 illustrate the average of six replicate samples of 1-butene headspace concentration and standard deviation.

[2] = Example 2: headspace analysis of 1-butene/c/α-CD powder (GC-FID); type: physicochemical; details: 100 mg 1-butene/c/α-CD powder, 250 mL bottle, no water, about 1 hour
Method: 1-butene/c/α-CD was analyzed by adding 100 mg of the collected and dried precipitate to a 250 mL glass bottle equipped with a septum cap, taking care to ensure that no powder adheres to the walls of the bottle. After about 1 hour, 250 μL of headspace gas was removed from the bottle using a six port, two-position gas sampling valve (Valco #EC6W) interfaced directly to a gas chromatograph (GC; Hewlett Packard 5890) using a RTx-5 GC column, 30 m×0.25 mm I.D., 0.25 μm film (obtained from Restek, Inc., of Bellefonte, Pa.) and equipped with flame ionization detector (FID). […] Then 3 mL of water was injected into the bottle through the septum, and the bottle is placed on a mechanical shaker and mixed vigorously for about 1 hour. After the shaking, 250 μL of the headspace gas is removed and added to an empty 250 mL bottle equipped with a septum cap, wherein the interior of the bottle was purged with nitrogen gas. The headspace concentration of 1-butene was quantified in the second bottle using gas chromatography by removing 250 μL, of gas from the 250 mL bottle using a six port, two-position gas sampling valve (Valco #EC6W) interfaced directly to a GC column having FID detector previously calibrated with a 6-point 1-butene (99.0% pure, Scott Specialty Gases, Plumsteadville, Pa.) calibration curve.

Compound: C=CCC [1-Butene, 1-butene]
- Headspace concentration of 1-butene, Ave. ([1]; 0.5 hours): 0.46 ppm (v/v)
- Headspace concentration of 1-butene, Ave. ([1]; 1 hour): 1.5 ppm (v/v)
- Headspace concentration of 1-butene, Ave. ([1]; 2 hours): 3.0 ppm (v/v)
- Headspace concentration of 1-butene, Ave. ([1]; 4 hours): 4.9 ppm (v/v)
- Headspace concentration of 1-butene, Ave. ([1]; 8 hours): 6.0 ppm (v/v)
- Headspace concentration of 1-butene, Ave. ([1]; 24 hours): 7.6 ppm (v/v)
- Headspace concentration of 1-butene, Ave. ([1]; 96 hours): 7.8 ppm (v/v)
- Headspace concentration of 1-butene ([1]; before water injection): No measurable concentration
- Headspace concentration of 1-butene [2]: No measurable concentration
